These results are taken from patent US20240279202A1 (NURIX THERAPEUTICS, INC., priority 2021, published 2024).

The structures appear in SMILES notation.

The experiment deals with T1, ITK (Homo sapiens, UniProt Q08881).
T1 sequence (Q08881 1-620): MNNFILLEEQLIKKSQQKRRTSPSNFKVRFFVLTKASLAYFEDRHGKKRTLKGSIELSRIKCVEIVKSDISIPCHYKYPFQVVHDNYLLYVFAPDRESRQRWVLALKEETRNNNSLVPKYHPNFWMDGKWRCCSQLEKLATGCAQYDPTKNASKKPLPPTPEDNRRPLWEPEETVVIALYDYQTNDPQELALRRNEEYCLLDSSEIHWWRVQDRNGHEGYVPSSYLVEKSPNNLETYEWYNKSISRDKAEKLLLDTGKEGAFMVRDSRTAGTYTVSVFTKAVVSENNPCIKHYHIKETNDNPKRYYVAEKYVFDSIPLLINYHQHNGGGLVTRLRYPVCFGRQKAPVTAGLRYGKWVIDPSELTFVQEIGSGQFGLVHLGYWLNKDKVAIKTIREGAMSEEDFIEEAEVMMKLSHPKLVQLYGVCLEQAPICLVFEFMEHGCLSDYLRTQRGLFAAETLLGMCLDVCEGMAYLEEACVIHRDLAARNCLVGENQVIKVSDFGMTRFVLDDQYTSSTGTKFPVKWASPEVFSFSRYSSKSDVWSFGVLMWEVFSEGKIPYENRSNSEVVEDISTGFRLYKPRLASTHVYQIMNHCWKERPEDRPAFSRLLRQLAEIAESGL
Briefly: ITK degradation HiBiT assay. The class given is cell-based. Details: expressed in transfected cells; host or cells: Molt4 (ATCC CRL-1552), monoclonal clone 1C10, engineered to carry the HiBiT tag. The note with it: 4 hrs; for DC50: C-terminal HiBiT-tagged Molt4 cells; for Dmax: MOLT-4, C-terminal HiBiT-tagged Molt4 cells. On the procedure: Itk Degradation Hibit Assay
Compounds provided herein were assayed in vitro with ITK HiBit cell lines. Compound dilution series (11-point, 5 fold dilutions in DMSO, columns 2-12 with replicate in rows A/B, C/D, E/F, G,H at 2000× the final required concentrations were prepared in 96 well plates (Falcon, cat. no. 353077). Column 1, rows A-H were control DMSO. The 2000× solutions ranged from 2 mM to 1.024 nM (final assay concentration range 1 μM to […]). The 2000× solutions were added to cells in […], for a final DMSO concentration of 0.5% and final assay compound concentration of 1×. For the cells, C-terminal HiBiT-tagged Molt4 cells (ATCC CRL-1552, monoclonal cell line clone 1C10) were plated at 1×10^6 cells/mL, 100 μL/well ([…]) in complete RPMI (10% FBS, 1% L-glutamine). The cells were incubated with compound 10 and compound 17 for 4 hrs at […]/6% CO2.
Following incubation, 100 μL of complete Nano-Glo HiBiT Lytic Detection Reagent (Nano-Glo HiBiT Lytic Buffer with 1:50 Nano-Glo HiBiT Lytic Substrate and 1:100 LgBiT Protein; Promega cat. no. N3040) was added. Cells were further incubated for 10 min at room temperature (RT). Luminescence units (LU) were read on an EnVision plate reader (Perkin Elmer, 0.1 sec per well). Percent ITK remaining per sample was calculated as follows: […]
Using Graphpad Prism, % ITK remaining values were plotted as a function of compound concentration. To determine DC50 and Dmax values, resulting curves were fit to the Prism curve-fitting equation “log(inhibitor) vs response—Variable slope (four parameters)” (reported best fit value IC50 used as DC50). ITK was measured with antibody-based MSD (Meso-Scale Discovery) assays shown below.

Consider `C[C@@]12Cc3[nH]nc(C(=O)Nc4cnn([C@H]5CC[C@H](CN6CCN(c7ccc(C(=O)NC8CCC(=O)NC8=O)nc7)CC6)CC5)c4)c3C[C@@H]1C2(F)F` (mixture of isomers) [Compound 127, N-[(3SR)-2,6-dioxopiperidin-3-yl]-5-(4-{[(1rs,4rs)-4-{4-[(4aS,5aR)-5,5-difluoro-5a-methyl-1H,4H,4aH,5H,5aH,6H-cyclopropa[f]indazole-3-amido]-1H-pyrazol-1-yl}cyclohexyl]methyl}piperazin-1-yl)pyridine-2-carboxamide], for which half-maximal degradation (DC50) was put at 19.1 nM and the Dmax (in general, the greatest extent of degradation seen) was 69%.

Regarding `C[C@H]1CN(C(=O)c2ccc3cc(-c4n[nH]c5c4CCC(C)(C)C5)[nH]c3c2)CCN1CC1CCN(c2ccc(C3CCC(=O)NC3=O)cc2)CC1` (mixture of isomers) [Compound 152], the Dmax is 80%.

Take `C[C@H]1CN(C(=O)c2ccc3cc(-c4n[nH]c5c4C[C@@H]4C(F)(F)[C@]4(C)C5)[nH]c3c2)CCN1CC1CCN(c2ccc(C3CCC(=O)NC3=O)cc2)CC1` (mixture of isomers) [Compound 153]: the Dmax came to 80%.

In turn, `C[C@@]12Cc3[nH]nc(-c4cc5ccc(C(=O)N6CC7CCC(C6)N7CC6CCN(c7ccc(C8CCC(=O)NC8=O)cc7)CC6)cc5[nH]4)c3C[C@@H]1C2(F)F` (mixture of isomers) [Compound 154] gave a Dmax of 76%.

`C[C@H]1CN(C(=O)c2ccc3cc(-c4n[nH]c5c4C[C@@H]4C(F)(F)[C@]4(C)C5)[nH]c3c2)CCN1CC1CCN(c2ccc(C3CCC(=O)NC3=O)cc2F)CC1` (mixture of isomers) [Compound 155] returned a Dmax of 84%.

`C[C@@]12Cc3[nH]nc(C(=O)Nc4cnn(C5CCN(C(=O)[C@H]6CC[C@H](Cn7ncc8cc(C9CCC(=O)NC9=O)ccc87)CC6)CC5)c4)c3C[C@@H]1C2(F)F` (mixture of isomers) [Compound 164] displayed a maximal degradation (Dmax) of 86%.

`C[C@@]12Cc3[nH]nc(C(=O)Nc4cnn(C5CCN(C(=O)C6CCC(Cn7cc8cc(C9CCC(=O)NC9=O)ccc8n7)CC6)CC5)c4)c3C[C@@H]1C2(F)F` (mixture of isomers) [Compound 165] displayed a Dmax of 86%.

On to `C[C@@]12Cc3[nH]nc(C(=O)Nc4cnn(C5CCN(C(=O)CC6CCN(c7ccc(C8CCC(=O)NC8=O)cn7)CC6)CC5)c4)c3C[C@@H]1C2(F)F` (mixture of isomers) [Compound 166], for which the Dmax came out at 88%.

The compound `C[C@@]12Cc3[nH]nc(C(=O)Nc4cnn(C5CCN(C(=O)C6CCN(c7ccc(C8CCC(=O)NC8=O)cn7)C6)CC5)c4)c3C[C@@H]1C2(F)F` (mixture of isomers) [Compound 167] returned a Dmax of 86%.

Turning to `C[C@@]12Cc3[nH]nc(C(=O)Nc4cnn(C5CCN(C(=O)C6CCC(Oc7ccc(C8CCC(=O)NC8=O)cn7)CC6)CC5)c4)c3C[C@@H]1C2(F)F` (mixture of isomers) [Compound 168], the Dmax came out at 88%.

As for `Cn1c(=O)n(C2CCC(=O)NC2=O)c2ccc(N[C@H]3CC[C@H](C(=O)N4CCC(n5cc(NC(=O)c6n[nH]c7c6C[C@@H]6C(F)(F)[C@]6(C)C7)cn5)CC4)CC3)cc21` (mixture of isomers) [Compound 169], the Dmax was 80%.

For `Cn1c(=O)n(C2CCC(=O)NC2=O)c2cccc(N3CCC(C(=O)N4CCC(n5cc(NC(=O)c6n[nH]c7c6C[C@@H]6C(F)(F)[C@]6(C)C7)cn5)CC4)CC3)c21` (mixture of isomers) [Compound 171], the Dmax was found to be 88%.

In the case of `C[C@@]12Cc3[nH]nc(C(=O)Nc4cnn(CC5CCN(C(=O)C6CCN(c7ccc(C8CCC(=O)NC8=O)cc7)CC6)CC5)c4)c3C[C@@H]1C2(F)F` (mixture of isomers) [Compound 173], the greatest degradation seen (Dmax) amounted to 87%.

Regarding `CC1(C)CCc2c(C(=O)Nc3cnn([C@H]4CC[C@H](C(=O)N5CCN(c6ccc(C7CCC(=O)NC7=O)cn6)CC5)CC4)c3)n[nH]c2C1` (mixture of isomers) [Compound 175], the Dmax was determined as 65%.

For the compound `CC1(C)CCc2c(C(=O)Nc3cnn([C@H]4CC[C@H](C(=O)N5CCN(c6ccc(C7CCC(=O)NC7=O)cc6)CC5)CC4)c3)n[nH]c2C1` (mixture of isomers) [Compound 176], the Dmax came out at 76%.

As for `C[C@@]12Cc3[nH]nc(C(=O)Nc4cnn(C5CCC(C(=O)N6CCN(c7ccc(C8CCC(=O)NC8=O)cc7)CC6)CC5)c4)c3C[C@@H]1C2(F)F` (mixture of isomers) [Compound 179], the Dmax came to 88%.

`C[C@@]12Cc3[nH]nc(C(=O)Nc4cnn(C5CCN(C(=O)C6CCN(c7ccc(C(=O)NC8CCC(=O)NC8=O)nc7)CC6)CC5)c4)c3C[C@@H]1C2(F)F` (mixture of isomers) [Compound 180] had a Dmax of 72%.

Consider `C[C@@]12Cc3[nH]nc(C(=O)Nc4cnn([C@H]5CCN(CC6CCN(c7ccc([C@H]8CCC(=O)NC8=O)cc7)CC6)C[C@@H]5F)c4)c3C[C@@H]1C2(F)F` (single isomer, unassigned) [Compound 95], for which it took 0.6 nM to reach half-maximal degradation (DC50) and the Dmax stood at 90%.

With `C[C@@]12Cc3[nH]nc(C(=O)Nc4cnn([C@@H]5CCN(CC6CCN(c7ccc([C@H]8CCC(=O)NC8=O)cc7)CC6)C[C@H]5F)c4)c3C[C@@H]1C2(F)F` (single isomer, unassigned) [Compound 96], the 50% degradation concentration (DC50) (commonly the midpoint of the concentration-degradation curve) came to 1.1 nM and the Dmax was determined as 89%.

The compound `C[C@@]12Cc3[nH]nc(-c4cc5cc(F)c(C(=O)N6CCN(CC7CCN(c8ccc([C@H]9CCC(=O)NC9=O)cc8)CC7)CC6)cc5[nH]4)c3C[C@@H]1C2(F)F` (single isomer, unassigned) [Compound 220] gave a DC50 of 1.4 nM and a Dmax of 89%.

`CC1(C)CCc2c(-c3cc4ccc(N5CCC6(CCN(Cc7ccc8c(c7)C(=O)N(C7CCC(=O)NC7=O)C8=O)CC6)C5=O)cc4[nH]3)n[nH]c2C1` (stereo not drawn) [Compound 8, 5-((2-(2-(6,6-dimethyl-4,5,6,7-tetrahydro-1H-indazol-3-yl)-1H-indol-6-yl)-1-oxo-2,8-diazaspiro[4.5]decan-8-yl)methyl)-2-(2,6-dioxopiperidin-3-yl)isoindoline-1,3-dione] gave a DC50 of 7.8 nM and a Dmax of 92%.

With `C[C@@H](C(=O)N(C)c1ccc2cc(-c3n[nH]c4c3C[C@@H]3C(F)(F)[C@]3(C)C4)[nH]c2c1)N1CCN(CC2CCN(c3cc(C4CCC(=O)NC4=O)ccn3)CC2)CC1` (stereo partly drawn) [Compound 23, (2S)—N-(2-((4aS,5aR)-5,5-difluoro-5a-methyl-1,4,4a,5,5a,6-hexahydrocyclopropa[f]indazol-3-yl)-1H-indol-6-yl)-2-(4-((1-(4-(2,6-dioxopiperidin-3-yl)pyridin-2-yl)piperidin-4-yl)methyl)piperazin-1-yl)-N-methylpropanamide], the DC50 was < 0.001 nM and the Dmax worked out at 82%.

In the case of `C[C@@]12Cc3[nH]nc(-c4cc5ccc(N6CCC7(CCN(C(=O)C8CCN(c9ccc(C%10CCC(=O)NC%10=O)cn9)CC8)CC7)C6=O)cc5[nH]4)c3C[C@@H]1C2(F)F` (stereo partly drawn) [Compound 24, 3-(6-(4-(2-(2-((4aS,5aR)-5,5-difluoro-5a-methyl-1,4,4a,5,5a,6-hexahydrocyclopropa[f]indazol-3-yl)-1H-indol-6-yl)-1-oxo-2,8-diazaspiro[4.5]decane-8-carbonyl)piperidin-1-yl)pyridin-3-yl)piperidine-2,6-dione], it took 0.01 nM to reach half-maximal degradation (DC50).

Consider `CC1(C)CCc2c(-c3cc4ccc(C(=O)N5CCN(CC6CCN(c7ccc8c(c7)CN(C7CCC(=O)NC7=O)C8=O)CC6)CC5)cc4[nH]3)n[nH]c2C1` (stereo not drawn) [Compound 26, 3-{5-[4-({4-[2-(6,6-dimethyl-1,4,5,7-tetrahydroindazol-3-yl)-1H-indole-6-carbonyl]piperazin-1-yl}methyl)piperidin-1-yl]-1-oxo-3H-isoindol-2-yl}piperidine-2,6-dione], for which the 50% degradation concentration (DC50) is < 0.01 nM and the Dmax came to 88%.

Take `C[C@@]12Cc3[nH]nc(C(=O)Nc4cnn([C@H](c5ccccc5)C5CN(C(=O)N6CCC7(CCN(c8ccc9c(c8)C(=O)N(C8CCC(=O)NC8=O)C9=O)CC7)C6)C5)c4)c3C[C@@H]1C2(F)F` (stereo partly drawn) [Compound 53]: the DC50 stood at 3.3 nM and the Dmax was 94%.
